Results on 14 compounds are retold here after patent US8637537B2, “Serine/threonine kinase inhibitors” (Genentech, Inc., priority 2011, dated 2014).

As usually defined, the Ki is the equilibrium dissociation constant of an inhibitor or competing ligand from its target.

T1 sequence (Q13153 249-545): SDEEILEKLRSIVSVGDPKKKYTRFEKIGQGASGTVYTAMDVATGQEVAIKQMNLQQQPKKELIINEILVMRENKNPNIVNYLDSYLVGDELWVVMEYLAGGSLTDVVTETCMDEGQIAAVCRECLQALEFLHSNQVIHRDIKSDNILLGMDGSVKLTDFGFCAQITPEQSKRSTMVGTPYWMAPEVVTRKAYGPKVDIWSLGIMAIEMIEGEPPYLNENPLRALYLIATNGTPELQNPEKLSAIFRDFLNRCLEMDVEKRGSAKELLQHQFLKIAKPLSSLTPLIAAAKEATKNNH

The first assay concerns the target T1, human recombinant GST-PAK1-KD protein (Homo sapiens, UniProt Q13153).
T1 construct: residues #249-545 of human PAK1, UniProtKP/Swiss Q13153; His6 (N); made in house; host or cells: Sf9 insect cells, pAcGP67 baculovirus expression vector
Nature of the assay: GST-PAK1-KD (kinase domain) biochemical assay, microfluidic mobility shift. The following applies: Table I, PAK1 Ki class; read-out: Ki. As for the experimental part: Activity of human recombinant GST-PAK1-KD protein was assessed in vitro assay by observing the phosphorylation of a fluorogenic peptide substrate.
The peptide substrate is a consensus sequence based on various PAK1 substrates reported in the scientific literature. […] Incubations were carried out at 22° C. in MatriCal MP101 384-well Metriplates™. […] Following the 30-minute incubation, the assay mixtures were quenched by the addition of 3 μL of 250 mM EDTA, and the substrate and phosphorylated product were separated by capillary electrophoresis and detected using LabChip® Caliper 3000 (Caliper Life Sciences).
With `Cc1ccc2[nH]ccc2c1CNc1nccc(Nc2cc(C3CC3)[nH]n2)n1` [I-122, N^4-(5-Cyclopropyl-1H-pyrazol-3-yl)-N^2-((5-methyl-1H-indol-4-yl)methyl)pyrimidine-2,4-diamine], the Ki was 0.05 to 0.25 µM.
Still for that read-out and setting: with `C[C@H](Nc1ncc(F)c(Nc2cc(C3CC3)[nH]n2)n1)c1cccc2[nH]ccc12` [I-99, N^4-(5-cyclopropyl-1H-pyrazol-3-yl)-5-fluoro-N^2-[(1S)-1-(1H-indol-4-yl)ethyl]pyrimidine-2,4-diamine] the figure was 0.05 to 0.25 µM; with `CC(C)(O)c1cc(Nc2cc(C3CC3)[nH]n2)nc(NCc2ccc3[nH]cnc3c2Cl)n1` [I-84, 2-(2-((4-chloro-1H-benzo[d]imidazol-5-yl)methylamino)-6-(5-cyclopropyl-1H-pyrazol-3-ylamino)pyrimidin-4-yl)propan-2-ol], less than 0.05 µM.
For the compound `FC1(F)C[C@H]1c1cc(Nc2ccnc(NCc3ccc4[nH]cnc4c3Cl)n2)n[nH]1` [I-74, (S)—N^2-((4-chloro-1H-benzo[d]imidazol-5-yl)methyl)-N^4-(5-(2,2-difluorocyclopropyl)-1H-pyrazol-3-yl)pyrimidine-2,4-diamine], the Ki was less than 0.05 µM.
Same read-out and setting: next, `Fc1cnc(NCc2cccc3[nH]cnc23)nc1Nc1cc(C2CC2)n[nH]1` [I-97, N^2-((3H-benzo[d]imidazol-4-yl)methyl)-N^4-(3-cyclopropyl-1H-pyrazol-5-yl)-5-fluoropyrimidine-2,4-diamine]: less than 0.05 µM; `C[C@H](Nc1nccc(Nc2cc([C@@H]3C[C@@H]3F)[nH]n2)n1)c1ccc2[nH]cnc2c1` (single isomer, unassigned) [I-67]: less than 0.05 µM; `c1ccc([C@@H]2C[C@H]2c2cc(Nc3ccnc(NCc4ccc5[nH]cnc5c4)n3)n[nH]2)cc1` (racemic) [I-27, N^2-(1H-Benzimidazol-5-ylmethyl)-N^4-[5-[(trans)-2-phenylcyclopropyl]-1H-pyrazol-3-yl]pyrimidine-2,4-diamine]: 0.05 to 0.25 µM.
Same read-out and setting: with `OCCN(Cc1ccc2[nH]cnc2c1)c1nccc(Nc2cc(C3CC3)[nH]n2)n1` [I-63, 2-(((1H-benzo[d]imidazol-5-yl)methyl)(4-(5-cyclopropyl-1H-pyrazol-3-ylamino)pyrimidin-2-yl)amino)ethanol] the figure was 0.05 to 0.25 µM.

Still in this assay, the particulars now being: Table II, PAK1 Ki class; read-out: Ki.
Regarding `Clc1cc(CNc2nccc(Nc3cc(C4CC4)[nH]n3)n2)c2nc[nH]c2c1` [II-44, N^2-((6-Chloro-1H-benzo[d]imidazol-4-yl)methyl)-N^4-(5-cyclopropyl-1H-pyrazol-3-yl)-pyrimidine-2,4-diamine], the Ki was less than 0.05 µM.
On the same count and under the same terms, with `FC(F)(F)c1cc(CNc2nccc(Nc3cc(C4CC4)[nH]n3)n2)c2cn[nH]c2c1` [II-99, N^4-(5-Cyclopropyl-1H-pyrazol-3-yl)-N^2-((6-(trifluoromethyl)-1H-indazol-4-yl)methyl)pyrimidine-2,4-diamine] the figure was less than 0.05 µM.
Same read-out and setting: next, `CCN(Cc1cccc2[nH]ncc12)c1ncc(F)c(Nc2cc(C3CC3)[nH]n2)n1` [II-87, N^2-((1H-indazol-4-yl)methyl)-N^4-(5-cyclopropyl-1H-pyrazol-3-yl)-N^2-ethyl-5-fluoropyrimidine-2,4-diamine]: less than 0.05 µM.
Same read-out and setting: with `CN(Cc1cccc2[nH]ncc12)c1nccc(Nc2cc(C3CC3)[nH]n2)n1` [II-84, N^2-((1H-indazol-4-yl)methyl)-N^4-(5-cyclopropyl-1H-pyrazol-3-yl)-N^2-methylpyrimidine-2,4-diamine] the figure was less than 0.05 µM; with `CN(C)CCN(Cc1cc(F)cc2[nH]ncc12)c1nccc(Nc2cc(C3CC3)[nH]n2)n1` [II-110, N^4-(5-cyclopropyl-1H-pyrazol-3-yl)-N^2-(2-(dimethylamino)ethyl)-N^2-((6-fluoro-1H-indazol-4-yl)methyl)pyrimidine-2,4-diamine], less than 0.05 µM.
`Cc1cc(Nc2ccnc(NCc3ccc4[nH]cnc4c3Cl)n2)n[nH]1` [II-46, N^2-((4-Chloro-1H-benzo[d]imidazol-5-yl)methyl)-N^4-(5-methyl-1H-pyrazol-3-yl)pyrimidine-2,4-diamine]: the Ki lay within 0.05 to 0.25 µM.
